Experimental data taken from PubChem BioAssay (NCI).
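All cell lines were grown in 96-well plates and treated with compound for 48 hours. GI50 = concentration required for 50% inhibition of growth. TGI denotes the concentration required for complete inhibition of growth.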

Columns and labels:
Assay in all cases: NCI-60 cell line screen, 48 h
DU-145 prostate = system: DU-145 prostate
OVCAR-8 ovarian = system: OVCAR-8 ovarian
MDA-MB-231 breast = system: MDA-MB-231 breast
BT-549 breast = system: BT-549 breast
NCI/ADR-RES ovarian = system: NCI/ADR-RES ovarian
OVCAR-3 ovarian = system: OVCAR-3 ovarian
SK-OV-3 ovarian = system: SK-OV-3 ovarian
A498 renal = system: A498 renal
SF-539 CNS = system: SF-539 CNS
ACHN renal = system: ACHN renal

SMILES	TGI (DU-145 prostate)	TGI (OVCAR-8 ovarian)	TGI (MDA-MB-231 breast)	TGI (BT-549 breast)	TGI (NCI/ADR-RES ovarian)	TGI (OVCAR-3 ovarian)	GI50 (SK-OV-3 ovarian)	TGI (SK-OV-3 ovarian)	GI50 (DU-145 prostate)	GI50 (A498 renal)	TGI (A498 renal)	GI50 (MDA-MB-231 breast)	GI50 (SF-539 CNS)	TGI (SF-539 CNS)	GI50 (NCI/ADR-RES ovarian)	GI50 (OVCAR-3 ovarian)	GI50 (ACHN renal)	TGI (ACHN renal)	GI50 (OVCAR-8 ovarian)	GI50 (BT-549 breast)
Cc1cccc(N2C(=O)C3c4[nH]c5ccc(C)cc5c4C4CCC(C(C)(C)C)CC4C3C2=O)c1 (configuration not stated)	38.7 µM	47.7 µM	38.4 µM	> 100 µM	48.5 µM	28.9 µM	–	–	–	–	–	–	–	–	–	–	–	–	–	–
CCCCCCCCCCCCCC[n+]1ccc(C)cc1	1.83 µM	–	3.7 µM	–	37 µM	1.28 µM	1.8 µM	5.56 µM	0.608 µM	2.93 µM	12.6 µM	1.34 µM	1.77 µM	4.72 µM	11.8 µM	0.351 µM	3.23 µM	10.9 µM	–	–
CCCCOP(C)(=O)C(NC(=O)OCC)(C(F)(F)F)C(F)(F)F (configuration not stated)	> 100 µM	> 100 µM	> 100 µM	> 100 µM	> 100 µM	> 100 µM	–	> 100 µM	–	–	> 100 µM	–	–	> 100 µM	–	–	–	> 100 µM	–	–
C=C1C(=O)OC2CC(C)C3C4OC4C(O)C3(C)C(O)C12 (configuration not stated)	–	91.6 µM	–	–	91.9 µM	69.3 µM	–	98.8 µM	–	–	44.4 µM	–	–	45.6 µM	–	–	–	–	–	–
CSc1nc(N)c2c(-c3ccccc3)c3c(nc2n1)CCCC3	> 100 µM	> 100 µM	> 100 µM	> 100 µM	> 100 µM	> 100 µM	–	> 100 µM	–	–	–	–	–	> 100 µM	–	–	–	> 100 µM	–	–
COc1ccc(-c2c(-c3ccccc3)c(C)nc3nc(SC)nc(SC)c23)cc1OC	> 100 µM	–	> 100 µM	> 100 µM	–	> 100 µM	–	> 100 µM	–	–	56.9 µM	–	–	23 µM	–	–	–	> 100 µM	–	–
Clc1ccc(C[P+](c2ccccc2)(c2ccccc2)c2ccccc2)cc1Cl	–	12.4 µM	–	–	–	6.74 µM	–	20.8 µM	–	–	27 µM	–	–	14.5 µM	–	–	–	31.2 µM	–	–
C/C(N=NS(=O)(=O)c1ccc([N+](=O)[O-])cc1)=C1\C=CC=CN1O	–	> 100 µM	–	–	–	> 100 µM	–	> 100 µM	–	–	> 100 µM	–	–	> 100 µM	–	–	–	> 100 µM	–	–
O=C1/C(=C/c2ccc(O)cc2)COc2ccc(O)c(O)c21	5.69 µM	> 100 µM	–	7.69 µM	> 100 µM	5.79 µM	–	–	2.19 µM	–	–	–	1.82 µM	4.97 µM	2.91 µM	2.05 µM	1.99 µM	4.72 µM	3.51 µM	1.97 µM
C/C(=N\O)c1cccc[n+]1Cc1ccccc1	> 100 µM	> 100 µM	> 100 µM	> 100 µM	> 100 µM	> 100 µM	–	> 100 µM	–	–	> 100 µM	–	–	> 100 µM	–	–	–	> 100 µM	–	–
CC(C)c1ccccc1SCc1cc(=O)cc(CSc2ccccc2C(C)C)o1	55.4 µM	54.9 µM	49.5 µM	–	41.5 µM	39.2 µM	–	48 µM	–	–	40.9 µM	–	–	–	–	–	–	> 100 µM	–	–
CC12CCC(CC1)C(C)(C)O2	–	133 µM	–	–	266 µM	84.8 µM	–	223 µM	–	–	99.6 µM	–	–	90.1 µM	–	–	–	–	–	–
O=C(O)/C=C/c1c[nH]c(=O)[nH]c1=O	–	> 500 µM	–	–	> 472 µM	> 500 µM	–	> 500 µM	–	> 500 µM	> 500 µM	–	–	> 500 µM	–	–	–	–	–	–
